Laboratory results from ChEMBL document CHEMBL1201862, “PubChem BioAssay data set” (2004).
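A five-concentration, 48-hour dose response in 96-well plates underlies each endpoint, interpolated linearly between surrounding concentrations. GI50: concentration for 50% inhibition of growth.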 The source made the active and inactive calls. Rule as the data show it: active = GI50 up to about 1.1 µM and inactive = higher.

How the values were obtained:
Experiment in all cases: DTP human tumour cell line panel, 48 h
SR = system: SR
UACC-257 = system: UACC-257
NCI-H226 = system: NCI-H226
SK-MEL-2 = system: SK-MEL-2
SF-268 = system: SF-268
SK-MEL-5 = system: SK-MEL-5
LOX IMVI = system: LOX IMVI
MOLT-4 = system: MOLT-4
A549 = system: A549
MDA-N = system: MDA-N
RPMI-8226 = system: RPMI-8226
SW-620 = system: SW-620
COLO 205 = system: COLO 205
OVCAR-8 = system: OVCAR-8
M14 = system: M14
BT-549 = system: BT-549
A498 = system: A498
SN12C = system: SN12C
HL-60 = system: HL-60
CCRF-CEM = system: CCRF-CEM

Measured: GI50

CC(C)CCC[C@@H](C)[C@H]1CC[C@H]2[C@@H]3CC=C4C[C@@H](OC(=O)c5cccc6c(=O)c7ccccc7[nH]c56)CC[C@]4(C)[C@H]3CC[C@]12C
inactive: SR > 75 µM | UACC-257 > 75 µM | NCI-H226 > 75 µM | SK-MEL-2 > 75 µM | SF-268 > 75 µM | SK-MEL-5 > 75 µM | LOX IMVI > 75 µM | MOLT-4 > 75 µM | A549 > 75 µM | MDA-N 1.56 µM | RPMI-8226 > 75 µM | SW-620 > 75 µM | COLO 205 > 75 µM | OVCAR-8 > 75 µM | M14 > 75 µM | BT-549 > 75 µM | A498 > 75 µM | SN12C 1.92 µM

CC(=O)Oc1ccc2cc(Oc3cc(Cl)c(Cl)cc3Cl)c(=O)oc2c1
inactive: SR 19.8 µM | UACC-257 20.6 µM | NCI-H226 16.9 µM | SF-268 26.9 µM | HL-60 22.7 µM | SK-MEL-5 11.9 µM | CCRF-CEM 14 µM | LOX IMVI 15.4 µM | MOLT-4 11.9 µM | A549 16.4 µM | MDA-N 14.6 µM | SW-620 14.8 µM | OVCAR-8 17.1 µM | M14 18.2 µM | BT-549 13.1 µM | A498 17.7 µM | SN12C 14.6 µM

NCCCN1CCN(c2ccccc2)CC1
inactive: SR 34.3 µM | UACC-257 > 100 µM | NCI-H226 > 100 µM | SK-MEL-2 > 100 µM | SF-268 > 100 µM | SK-MEL-5 > 100 µM | LOX IMVI > 100 µM | MOLT-4 79.3 µM | A549 > 100 µM | MDA-N > 100 µM | RPMI-8226 > 100 µM | COLO 205 78.7 µM | OVCAR-8 > 100 µM | M14 35.3 µM | BT-549 > 100 µM | A498 > 100 µM | SN12C > 100 µM

COC(=O)[C@]1(C)CCC[C@@]2(C)C1CC[C@@]13C=C(C(C)C)[C@@H](CC1=O)CC23 (some centres undefined)
inactive: SR 15.5 µM | UACC-257 21.5 µM | NCI-H226 21.1 µM | SF-268 32.5 µM | HL-60 19.8 µM | SK-MEL-5 16.5 µM | CCRF-CEM 17.7 µM | MOLT-4 15 µM | A549 29.2 µM | MDA-N 28.8 µM | RPMI-8226 18.5 µM | SW-620 27.3 µM | COLO 205 > 10 µM | OVCAR-8 29 µM | M14 38.5 µM | BT-549 23 µM | SN12C 19.8 µM

O=C1/C(=C/c2cccc([N+](=O)[O-])c2)Cc2ccccc21
inactive: SR 36.8 µM | UACC-257 > 100 µM | NCI-H226 > 100 µM | SK-MEL-2 > 100 µM | SF-268 > 100 µM | HL-60 > 100 µM | CCRF-CEM > 100 µM | LOX IMVI > 100 µM | MOLT-4 > 100 µM | A549 91.6 µM | MDA-N > 100 µM | RPMI-8226 > 100 µM | SW-620 94.8 µM | COLO 205 > 100 µM | OVCAR-8 > 100 µM | M14 > 100 µM | BT-549 > 100 µM | SN12C > 100 µM

C[C@@]12C=CC3C/C(=N\C(N)=S)C=C(CCCC4OCCO4)[C@]3(CC1)C2 (some centres undefined)
inactive: SR 15.1 µM | UACC-257 18.8 µM | NCI-H226 23.3 µM | SK-MEL-2 16.9 µM | SF-268 29.4 µM | SK-MEL-5 12.4 µM | LOX IMVI 17.4 µM | MOLT-4 9.44 µM | A549 21.1 µM | MDA-N 16 µM | RPMI-8226 16.2 µM | SW-620 20.8 µM | COLO 205 13.2 µM | OVCAR-8 21.8 µM | M14 17.2 µM | BT-549 16.9 µM | A498 15.5 µM | SN12C 16.5 µM

CC(C)(C)OC(=O)NC(Cc1ccc(O)cn1)C(=O)O (centres undefined)
inactive: SR > 100 µM | UACC-257 > 100 µM | NCI-H226 > 100 µM | SF-268 > 100 µM | HL-60 > 100 µM | SK-MEL-5 > 100 µM | CCRF-CEM > 10 µM | LOX IMVI > 100 µM | MOLT-4 > 100 µM | A549 > 100 µM | MDA-N > 100 µM | RPMI-8226 > 100 µM | SW-620 > 100 µM | COLO 205 > 100 µM | OVCAR-8 > 100 µM | BT-549 > 100 µM | A498 > 100 µM | SN12C > 100 µM

c1ccc2c(-c3csc(-c4c[nH]c5ccccc45)n3)c[nH]c2c1
inactive: SR 2.93 µM | UACC-257 > 100 µM | NCI-H226 > 100 µM | SK-MEL-2 > 100 µM | SF-268 > 100 µM | HL-60 14.4 µM | LOX IMVI 21.8 µM | MOLT-4 4.86 µM | A549 96.8 µM | MDA-N 49 µM | SW-620 > 100 µM | OVCAR-8 > 100 µM | M14 > 100 µM | BT-549 > 100 µM | A498 > 100 µM | SN12C > 100 µM
